Laboratory results taken from ChEMBL document CHEMBL1201861, “Genomics of Drug Sensitity in Cancer screening data, Wellcome Trust Sanger Institute”.

Legend:
Test in all cases: cells
Type in all cases: functional, cell-based, Homo sapiens
EKVX = conditions: Homo sapiens, EKVX;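 also: growth inhibition of human EKVX cells, read out with a cell viability assay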
Description: SANGER: Inhibition of human EKVX cell growth in a cell viability assay.

KINGS-1 = conditions: Homo sapiens, KINGS-1;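 also: cell viability assay measuring suppression of KINGS-1 cell growth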
Description: SANGER: Inhibition of human KINGS-1 cell growth in a cell viability assay.

MFH-ino = conditions: Homo sapiens, MFH-ino;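 also: growth inhibition of human MFH-ino cells, read out by a cell viability assay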
Description: SANGER: Inhibition of human MFH-ino cell growth in a cell viability assay.

MOLT-16 = conditions: Homo sapiens, MOLT-16;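 also: growth inhibition of human MOLT-16 cells, read out with a cell viability assay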
Description: SANGER: Inhibition of human MOLT-16 cell growth in a cell viability assay.

DOHH-2 = conditions: Homo sapiens, DOHH-2;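 also: growth inhibition of human DOHH-2 cells, read out with a cell viability assay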
Description: SANGER: Inhibition of human DOHH-2 cell growth in a cell viability assay.

HT-144 = conditions: Homo sapiens, HT-144
Description: SANGER: Inhibition of human HT-144 cell growth in a cell viability assay.

RXF 393 = conditions: Homo sapiens, RXF 393;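 also: growth inhibition of human RXF 393 cells, read out with a cell viability assay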
Description: SANGER: Inhibition of human RXF393 cell growth in a cell viability assay.

ES4 = conditions: Homo sapiens, ES4;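 also: growth inhibition of human ES4 cells, read out by a cell viability assay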
Description: SANGER: Inhibition of human ES4 cell growth in a cell viability assay.

SNB-75 = conditions: Homo sapiens, SNB-75;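 also: cell viability assay measuring growth inhibition of human SNB-75 cells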
Description: SANGER: Inhibition of human SNB75 cell growth in a cell viability assay.

HCC1187 = conditions: Homo sapiens, HCC1187;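 also: growth inhibition of HCC1187 cells, read out with a cell viability assay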
Description: SANGER: Inhibition of human HCC1187 cell growth in a cell viability assay.

DEL = conditions: Homo sapiens, DEL;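 also: growth inhibition of the human DEL cell line, read out with a cell viability assay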
Description: SANGER: Inhibition of human DEL cell growth in a cell viability assay.

SW684 = conditions: Homo sapiens, SW684;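 also: growth inhibition of human SW684 cells, measured by a cell viability assay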
Description: SANGER: Inhibition of human SW684 cell growth in a cell viability assay.

EC-GI-10 = conditions: Homo sapiens, EC-GI-10
Description: SANGER: Inhibition of human EC-GI-10 cell growth in a cell viability assay.

C2BBe1 = conditions: Homo sapiens, C2BBe1;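 also: growth inhibition of C2BBe1 cells, read out through a viability assay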
Description: SANGER: Inhibition of human C2BBe1 cell growth in a cell viability assay.

NCI-H1648 = conditions: Homo sapiens, NCI-H1648;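 also: cell viability assay measuring inhibition of NCI-H1648 cell growth, from the Sanger screening data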
Description: SANGER: Inhibition of human NCI-H1648 cell growth in a cell viability assay.

LB373-MEL-D = conditions: Homo sapiens, LB373-MEL-D;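 also: growth inhibition of the cell line, read out in a cell viability assay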
Description: SANGER: Inhibition of human LB373-MEL-D cell growth in a cell viability assay.

LS-1034 = conditions: Homo sapiens, LS-1034
Description: SANGER: Inhibition of human LS-1034 cell growth in a cell viability assay.

A253 cell line = conditions: Homo sapiens, A253;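 also: growth inhibition of A253 cells, read out with a cell viability assay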
Description: SANGER: Inhibition of human A253 cell growth in a cell viability assay.

RH-1 = conditions: Homo sapiens, RH-1;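 also: growth inhibition of human RH-1 cells, read out with a cell viability assay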
Description: SANGER: Inhibition of human RH-1 cell growth in a cell viability assay.

no-10 = conditions: Homo sapiens;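 also: growth inhibition of no-10 cells, read out with a cell viability assay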
Description: SANGER: Inhibition of human no-10 cell growth in a cell viability assay.

IST-SL1 = conditions: Homo sapiens, IST-SL1;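 also: growth inhibition of human IST-SL1 cells, read out with a cell viability assay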
Description: SANGER: Inhibition of human IST-SL1 cell growth in a cell viability assay.

COLO-320-HSR = conditions: Homo sapiens, COLO-320-HSR;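 also: growth inhibition of COLO-320-HSR cells, determined with a cell viability assay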
Description: SANGER: Inhibition of human COLO-320-HSR cell growth in a cell viability assay.

NCI-H1581 = conditions: Homo sapiens, NCI-H1581;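 also: cell growth inhibition read out by a viability assay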
Description: SANGER: Inhibition of human NCI-H1581 cell growth in a cell viability assay.

J-RT3-T3-5 = conditions: Homo sapiens, J-RT3-T3-5;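 also: cell viability assay measuring growth inhibition of human J-RT3-T3-5 cells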
Description: SANGER: Inhibition of human J-RT3-T3-5 cell growth in a cell viability assay.

CCRF-CEM = conditions: Homo sapiens, CCRF-CEM;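 also: inhibition of CCRF-CEM cell growth, measured by a cell viability assay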
Description: SANGER: Inhibition of human CCRF-CEM cell growth in a cell viability assay.

RKO = conditions: Homo sapiens, RKO;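 also: growth inhibition of human RKO cells, read out with a cell viability assay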
Description: SANGER: Inhibition of human RKO cell growth in a cell viability assay.

COLO-829 = conditions: Homo sapiens, COLO-829
Description: SANGER: Inhibition of human COLO-829 cell growth in a cell viability assay.

EW-18 = conditions: Homo sapiens, EW-18;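 also: growth inhibition of EW-18 cells, read out by a cell viability assay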
Description: SANGER: Inhibition of human EW-18 cell growth in a cell viability assay.

NB5 = conditions: Homo sapiens, NB5;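 also: growth inhibition of NB5 cells, read out as cell viability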
Description: SANGER: Inhibition of human NB5 cell growth in a cell viability assay.

NOMO-1 = conditions: Homo sapiens, NOMO-1;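 also: growth inhibition of human NOMO-1 cells measured by a cell viability assay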
Description: SANGER: Inhibition of human NOMO-1 cell growth in a cell viability assay.

DB = conditions: Homo sapiens, DB
Description: SANGER: Inhibition of human DB cell growth in a cell viability assay.

KARPAS-45 = conditions: Homo sapiens, KARPAS-45;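 also: inhibition of cell line growth, read out through a viability assay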
Description: SANGER: Inhibition of human KARPAS-45 cell growth in a cell viability assay.

GR-ST = conditions: Homo sapiens, GR-ST
Description: SANGER: Inhibition of human GR-ST cell growth in a cell viability assay.

SNU1 = conditions: Homo sapiens, SNU1;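 also: growth inhibition of human NCI-SNU-1 cells, measured with a cell viability assay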
Description: SANGER: Inhibition of human NCI-SNU-1 cell growth in a cell viability assay.

A704 = conditions: Homo sapiens, A704;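 also: growth inhibition of human A704 cells, read out with a cell viability assay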
Description: SANGER: Inhibition of human A704 cell growth in a cell viability assay.

MMAC-SF = conditions: Homo sapiens, MMAC-SF;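 also: growth inhibition of human MMAC-SF cells, read out with a cell viability assay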
Description: SANGER: Inhibition of human MMAC-SF cell growth in a cell viability assay.

KE-37 = conditions: Homo sapiens, KE-37;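 also: growth inhibition of KE-37 cells, read out with a cell viability assay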
Description: SANGER: Inhibition of human KE-37 cell growth in a cell viability assay.

KALS-1 = conditions: Homo sapiens, KALS-1;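 also: growth inhibition of KALS-1 cells, determined with a cell viability assay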
Description: SANGER: Inhibition of human KALS-1 cell growth in a cell viability assay.

JVM-3 = conditions: Homo sapiens, JVM-3;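 also: growth inhibition of human JVM-3 cells, read out with a cell viability assay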
Description: SANGER: Inhibition of human JVM-3 cell growth in a cell viability assay.

EW-24 = conditions: Homo sapiens, EW-24;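 also: human EW-24 cancer cell line, growth inhibition read out via a cell viability assay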
Description: SANGER: Inhibition of human EW-24 cell growth in a cell viability assay.

HCC2218 = conditions: Homo sapiens, HCC2218;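 also: cell viability assay read-out, with IC50 given as the concentration that inhibits growth of the cell line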
Description: SANGER: Inhibition of human HCC2218 cell growth in a cell viability assay.

A101D = conditions: Homo sapiens, A101D;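 also: growth inhibition of the cell line, measured with a viability assay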
Description: SANGER: Inhibition of human A101D cell growth in a cell viability assay.

KGN = conditions: Homo sapiens, KGN;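 also: growth inhibition of KGN cells, read out with a cell viability assay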
Description: SANGER: Inhibition of human KGN cell growth in a cell viability assay.

Ramos-2G6-4C10 = conditions: Homo sapiens, Ramos-2G6-4C10;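 also: growth inhibition of the cell line, measured by a cell viability read-out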
Description: SANGER: Inhibition of human Ramos-2G6-4C10 cell growth in a cell viability assay.

MN-60 = conditions: Homo sapiens, MN-60;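 also: growth inhibition of the MN-60 cell line, determined with a cell viability assay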
Description: SANGER: Inhibition of human MN-60 cell growth in a cell viability assay.

NCI-H1355 = conditions: Homo sapiens, NCI-H1355;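 also: growth inhibition of human NCI-H1355 cells, read out by a cell viability assay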
Description: SANGER: Inhibition of human NCI-H1355 cell growth in a cell viability assay.

SF-268 = conditions: Homo sapiens, SF-268;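 also: growth inhibition of SF-268 cells determined with a cell viability assay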
Description: SANGER: Inhibition of human SF268 cell growth in a cell viability assay.

D-392MG = conditions: Homo sapiens, D-392MG
BB30-HNC = conditions: Homo sapiens, BB30-HNC;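 also: growth inhibition of the cultured cell line, read out by a cell viability assay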
Description: SANGER: Inhibition of human BB30-HNC cell growth in a cell viability assay.

CCN(CC)CCNC(=O)c1c(C)[nH]c(/C=C2\C(=O)Nc3ccc(F)cc32)c1C [SUNITINIB]
IC50 (EKVX): > 8 µM
IC50 (KINGS-1): > 8 µM
IC50 (MFH-ino): > 8 µM
IC50 (MOLT-16): 0.631 µM
IC50 (DOHH-2): 2.33 µM
IC50 (HT-144): > 8 µM
IC50 (RXF 393): > 8 µM
IC50 (ES4): 2.81 µM
IC50 (SNB-75): > 8 µM
IC50 (HCC1187): > 8 µM
IC50 (DEL): 2.08 µM
IC50 (SW684): > 8 µM
IC50 (EC-GI-10): > 8 µM
IC50 (C2BBe1): > 8 µM
IC50 (NCI-H1648): > 8 µM
IC50 (LB373-MEL-D): > 8 µM
IC50 (LS-1034): > 8 µM
IC50 (A253 cell line): > 8 µM
IC50 (RH-1): > 8 µM
IC50 (no-10): > 8 µM
IC50 (IST-SL1): > 8 µM
IC50 (COLO-320-HSR): > 8 µM
IC50 (NCI-H1581): > 8 µM
IC50 (J-RT3-T3-5): 6.08 µM
IC50 (CCRF-CEM): > 8 µM
IC50 (RKO): > 8 µM
IC50 (COLO-829): > 8 µM
IC50 (EW-18): > 8 µM
IC50 (NB5): > 8 µM
IC50 (NOMO-1): 4.34 µM
IC50 (DB): > 8 µM
IC50 (KARPAS-45): 2.49 µM
IC50 (GR-ST): > 8 µM
IC50 (SNU1): > 8 µM
IC50 (A704): > 8 µM
IC50 (MMAC-SF): 6.11 µM
IC50 (KE-37): 4.06 µM
IC50 (KALS-1): > 8 µM
IC50 (JVM-3): > 8 µM
IC50 (EW-24): > 8 µM
IC50 (HCC2218): > 8 µM
IC50 (A101D): 2.78 µM
IC50 (KGN): 2.6 µM
IC50 (Ramos-2G6-4C10): > 8 µM
IC50 (MN-60): 7.54 µM
IC50 (NCI-H1355): 7.46 µM
IC50 (SF-268): 3.33 µM

CC(C)CCN1c2nc(Nc3cc(F)c(O)c(F)c3)ncc2N(C)C(=O)C1C (centres undefined)
IC50 (EKVX): > 5 µM
IC50 (KINGS-1): > 5 µM
IC50 (MFH-ino): > 5 µM
IC50 (MOLT-16): > 5 µM
IC50 (DOHH-2): > 5 µM
IC50 (HT-144): > 5 µM
IC50 (RXF 393): > 5 µM
IC50 (ES4): 1.85 µM
IC50 (SNB-75): > 5 µM
IC50 (HCC1187): > 5 µM
IC50 (D-392MG): > 5 µM
IC50 (DEL): > 5 µM
IC50 (SW684): > 5 µM
IC50 (C2BBe1): > 5 µM
IC50 (NCI-H1648): > 5 µM
IC50 (LB373-MEL-D): > 5 µM
IC50 (LS-1034): > 5 µM
IC50 (A253 cell line): > 5 µM
IC50 (RH-1): > 5 µM
IC50 (no-10): > 5 µM
IC50 (IST-SL1): 0.846 µM
IC50 (COLO-320-HSR): > 5 µM
IC50 (BB30-HNC): > 5 µM
IC50 (NCI-H1581): > 5 µM
IC50 (J-RT3-T3-5): > 5 µM
IC50 (CCRF-CEM): > 5 µM
IC50 (RKO): 4.73 µM
IC50 (COLO-829): 3.67 µM
IC50 (EW-18): 0.622 µM
IC50 (NB5): > 5 µM
IC50 (NOMO-1): > 5 µM
IC50 (DB): 2.55 µM
IC50 (KARPAS-45): 0.165 µM
IC50 (GR-ST): > 5 µM
IC50 (SNU1): > 5 µM
IC50 (A704): > 5 µM
IC50 (MMAC-SF): > 5 µM
IC50 (KE-37): 1.59 µM
IC50 (KALS-1): > 5 µM
IC50 (JVM-3): 3.07 µM
IC50 (HCC2218): > 5 µM
IC50 (A101D): 4.97 µM
IC50 (KGN): > 5 µM
IC50 (Ramos-2G6-4C10): 1.7 µM
IC50 (MN-60): 2.45 µM
IC50 (NCI-H1355): > 5 µM
IC50 (SF-268): 2.87 µM
